{
  "source": "paper PMC2920599",
  "about": "(Journal of medicinal chemistry, 2010)",
  "key": {"[1]": {"tested_on": "Colon", "test": "NCI 60 cell panel, five-concentration assay, colon subpanel", "format": "cell-based", "conditions": "total growth inhibition; 48 h exposure"}, "[2]": {"tested_on": "Renal", "test": "NCI 60 cell panel, five-concentration assay, renal subpanel", "format": "cell-based", "conditions": "total growth inhibition; 48 h exposure"}, "[3]": {"tested_on": "full NCI 60 cell panel", "conditions": "for GI50: read-out: GI50 MG-MID (mean GI50)"}, "[4]": {"tested_on": "CNS", "test": "NCI 60 cell panel, five-concentration assay, CNS subpanel", "format": "cell-based", "conditions": "total growth inhibition; 48 h exposure"}, "[5]": {"tested_on": "Breast", "test": "NCI 60 cell panel, five-concentration assay, breast subpanel", "format": "cell-based", "conditions": "total growth inhibition; 48 h exposure"}, "[6]": {"tested_on": "Melanoma", "test": "NCI 60 cell panel, five-concentration assay, melanoma subpanel", "format": "cell-based", "conditions": "total growth inhibition; 48 h exposure"}, "[7]": {"tested_on": "Ovarian", "test": "NCI 60 cell panel, five-concentration assay, ovarian subpanel", "format": "cell-based", "conditions": "total growth inhibition; 48 h exposure"}, "[8]": {"tested_on": "NSCLC", "test": "NCI 60 cell panel, five-concentration assay, NSCLC subpanel", "format": "cell-based", "conditions": "total growth inhibition; 48 h exposure"}, "[9]": {"tested_on": "Prostate", "test": "NCI 60 cell panel, five-concentration assay, prostate subpanel", "format": "cell-based", "conditions": "total growth inhibition; 48 h exposure"}, "[10]": {"tested_on": "Leukemia", "test": "NCI 60 cell panel, five-concentration assay, leukemia subpanel", "format": "cell-based", "conditions": "total growth inhibition; 48 h exposure"}, "[11]": {"conditions": "calculated panel mean, 48 h exposure"}, "[12]": {"conditions": "read-out: LC50 MG-MID (mean LC50), calculated panel mean, 48 h exposure"}},
  "note": "Like-named read-outs stand apart in the source and are kept apart here.",
  "data": [
    {"smiles": "COc1cc2c(/C=C3/C(=O)Nc4ccc(Br)cc43)c(Cl)[nH]c2cc1C", "note": "[Compound 4]", "values": [
      {"measurement": "TGI Colon", "setting": "[1]", "result": 6.76, "unit": "µM"},
      {"measurement": "TGI Renal", "setting": "[2]", "result": 10.96, "unit": "µM"},
      {"measurement": "CC50", "setting": "[3]", "result": 39.8, "unit": "µM"},
      {"measurement": "TGI MG-MID (mean TGI)", "setting": "[3]; [11]", "result": 9.33, "unit": "µM"},
      {"measurement": "TGI CNS", "setting": "[4]", "result": 8.91, "unit": "µM"},
      {"measurement": "TGI Breast", "setting": "[5]", "result": 10.47, "unit": "µM"},
      {"measurement": "TGI Melanoma", "setting": "[6]", "result": 9.55, "unit": "µM"},
      {"measurement": "TGI Ovarian", "setting": "[7]", "result": 8.13, "unit": "µM"},
      {"measurement": "TGI NSCLC", "setting": "[8]", "result": 14.13, "unit": "µM"},
      {"measurement": "TGI Prostate", "setting": "[9]", "result": 7.94, "unit": "µM"},
      {"measurement": "TGI Leukemia", "setting": "[10]", "result": 6.17, "unit": "µM"}
    ]},
    {"smiles": "COc1cc2c(/C=C3/C(=O)Nc4cc(Cl)ccc43)c(Cl)[nH]c2cc1C", "note": "[Compound 7]", "values": [
      {"measurement": "TGI Colon", "setting": "[1]", "result": 3.55, "unit": "µM"},
      {"measurement": "TGI Renal", "setting": "[2]", "result": 7.08, "unit": "µM"},
      {"measurement": "TGI MG-MID (mean TGI)", "setting": "[3]; [11]", "result": 6.61, "unit": "µM"},
      {"measurement": "GI50", "setting": "[3]; [11]", "result": 0.21, "unit": "µM"},
      {"measurement": "TGI CNS", "setting": "[4]", "result": 4.37, "unit": "µM"},
      {"measurement": "TGI Breast", "setting": "[5]", "result": 2.63, "unit": "µM"},
      {"measurement": "TGI Melanoma", "setting": "[6]", "result": 11.48, "unit": "µM"},
      {"measurement": "TGI Ovarian", "setting": "[7]", "result": 14.79, "unit": "µM"},
      {"measurement": "TGI NSCLC", "setting": "[8]", "result": 11.48, "unit": "µM"},
      {"measurement": "TGI Prostate", "setting": "[9]", "result": 5.25, "unit": "µM"},
      {"measurement": "TGI Leukemia", "setting": "[10]", "result": 4.79, "unit": "µM"}
    ]},
    {"smiles": "COc1cc2c(cc1C)NC(=O)/C2=C/c1c(Cl)n(C)c2cc(C)c(OC)cc12", "note": "[Compound 8]", "values": [
      {"measurement": "TGI Colon", "setting": "[1]", "result": 87.10, "unit": "µM"},
      {"measurement": "TGI MG-MID (mean TGI)", "setting": "[3]; [11]", "result": 77.62, "unit": "µM"},
      {"measurement": "GI50", "setting": "[3]; [11]", "result": 24, "unit": "µM"},
      {"measurement": "CC50", "setting": "[3]; [12]", "result": 91.2, "unit": "µM"},
      {"measurement": "TGI CNS", "setting": "[4]", "result": 87.10, "unit": "µM"},
      {"measurement": "TGI Breast", "setting": "[5]", "result": 77.62, "unit": "µM"},
      {"measurement": "TGI Melanoma", "setting": "[6]", "result": 45.71, "unit": "µM"},
      {"measurement": "TGI Ovarian", "setting": "[7]", "result": 91.20, "unit": "µM"},
      {"measurement": "TGI NSCLC", "setting": "[8]", "result": 97.72, "unit": "µM"},
      {"measurement": "TGI Prostate", "setting": "[9]", "result": 97.72, "unit": "µM"},
      {"measurement": "TGI Leukemia", "setting": "[10]", "result": 60.26, "unit": "µM"}
    ]},
    {"smiles": "COc1cc2c(/C=C3/C(=O)Nc4ccc(Br)cc43)c(Cl)n(C)c2cc1C", "note": "[Compound 9]", "values": [
      {"measurement": "TGI Colon", "setting": "[1]", "result": 6.03, "unit": "µM"},
      {"measurement": "TGI Renal", "setting": "[2]", "result": 6.76, "unit": "µM"},
      {"measurement": "CC50", "setting": "[3]", "result": 36.3, "unit": "µM"},
      {"measurement": "TGI MG-MID (mean TGI)", "setting": "[3]; [11]", "result": 8.32, "unit": "µM"},
      {"measurement": "GI50", "setting": "[3]; [11]", "result": 1.66, "unit": "µM"},
      {"measurement": "TGI CNS", "setting": "[4]", "result": 7.08, "unit": "µM"},
      {"measurement": "TGI Breast", "setting": "[5]", "result": 4.90, "unit": "µM"},
      {"measurement": "TGI Melanoma", "setting": "[6]", "result": 7.41, "unit": "µM"},
      {"measurement": "TGI Ovarian", "setting": "[7]", "result": 13.49, "unit": "µM"},
      {"measurement": "TGI NSCLC", "setting": "[8]", "result": 9.33, "unit": "µM"},
      {"measurement": "TGI Prostate", "setting": "[9]", "result": 8.91, "unit": "µM"},
      {"measurement": "TGI Leukemia", "setting": "[10]", "result": 20.89, "unit": "µM"}
    ]},
    {"smiles": "COc1cc2c(/C=C3/C(=O)Nc4ccc(N(C)C)cc43)c(Cl)n(C)c2cc1C", "note": "[Compound 10]", "values": [
      {"measurement": "TGI Colon", "setting": "[1]", "result": 70.79, "unit": "µM"},
      {"measurement": "TGI Renal", "setting": "[2]", "result": 69.18, "unit": "µM"},
      {"measurement": "TGI MG-MID (mean TGI)", "setting": "[3]; [11]", "result": 67.61, "unit": "µM"},
      {"measurement": "CC50", "setting": "[3]; [12]", "result": 97.7, "unit": "µM"},
      {"measurement": "TGI CNS", "setting": "[4]", "result": 60.26, "unit": "µM"},
      {"measurement": "TGI Breast", "setting": "[5]", "result": 54.95, "unit": "µM"},
      {"measurement": "TGI Melanoma", "setting": "[6]", "result": 67.61, "unit": "µM"},
      {"measurement": "TGI Ovarian", "setting": "[7]", "result": 77.62, "unit": "µM"},
      {"measurement": "TGI NSCLC", "setting": "[8]", "result": 91.20, "unit": "µM"},
      {"measurement": "TGI Prostate", "setting": "[9]", "result": 97.72, "unit": "µM"},
      {"measurement": "TGI Leukemia", "setting": "[10]", "result": 44.67, "unit": "µM"}
    ]},
    {"smiles": "COc1cc2c(/C=C3/C(=O)N(C)c4ccccc43)c(Cl)n(C)c2cc1C", "note": "[Compound 13]", "values": [
      {"measurement": "TGI Colon", "setting": "[1]", "result": 8.51, "unit": "µM"},
      {"measurement": "TGI Renal", "setting": "[2]", "result": 10.23, "unit": "µM"},
      {"measurement": "CC50", "setting": "[3]", "result": 77.6, "unit": "µM"},
      {"measurement": "TGI MG-MID (mean TGI)", "setting": "[3]; [11]", "result": 11.48, "unit": "µM"},
      {"measurement": "GI50", "setting": "[3]; [11]", "result": 0.32, "unit": "µM"},
      {"measurement": "TGI CNS", "setting": "[4]", "result": 4.47, "unit": "µM"},
      {"measurement": "TGI Breast", "setting": "[5]", "result": 13.18, "unit": "µM"},
      {"measurement": "TGI Melanoma", "setting": "[6]", "result": 14.13, "unit": "µM"},
      {"measurement": "TGI Ovarian", "setting": "[7]", "result": 18.20, "unit": "µM"},
      {"measurement": "TGI NSCLC", "setting": "[8]", "result": 33.11, "unit": "µM"},
      {"measurement": "TGI Prostate", "setting": "[9]", "result": 10.00, "unit": "µM"},
      {"measurement": "TGI Leukemia", "setting": "[10]", "result": 4.07, "unit": "µM"}
    ]}
  ]
}
